The values below come from ChEMBL document CHEMBL5647694, “Novel orally bioavailable EZH1/2 dual inhibitors with greater antitumor efficacy than an EZH2 selective inhibitor” (Cancer Sci, 2017).

The nature of data set [1]: Toxicity in Crl:CD Sprague-Dawley rat assessed as eosinophil count in blood at 100 mg/kg, po administered daily for 14 days (reference value: 0.085+/-0.04 10^3/uL). The following applies: in vivo, 336 h, time 14 day. It counts as organism-based.
The target in data set [2] is Interleukin-1 receptor-associated kinase 1 (Homo sapiens) (UniProt P51617). In words: Inhibition of N-terminal GST-fused truncated human IRAK1 (194 to 712 residues) expressed in baculovirus expression system using SRPKtide as substrate at 1 uM in presence of ATP by IMAP assay.
The nature of data set [3]: Toxicity in Crl:CD Sprague-Dawley rat assessed as abnormal clinical signs at 100 mg/kg, po administered daily for 14 days. The format is organism-based. The conditions noted are these: in vivo, 336 h, time 14 day.
Data set [4] is described as follows: Toxicity in Crl:CD Sprague-Dawley rat assessed as creatinine level in blood at 100 mg/kg, po administered daily for 14 days (reference value: 0.223 +/-[…]). It counts as organism-based. The conditions noted are these: in vivo, 336 h, time 14 day.
Data set [5] is described as follows: Toxicity in Crl:CD Sprague-Dawley rat assessed as creatine kinase level in blood at 100 mg/kg, po administered daily for 14 days (reference value: 164 +/-5U/L). It counts as organism-based. The following applies: in vivo, 336 h, time 14 day.
Data set [6] can be described thus: Toxicity in Crl:CD Sprague-Dawley rat assessed as alanine aminotransferase level in blood at 100 mg/kg, po administered daily for 14 days (reference value: 35.5+/-1.91 U/L). The format is organism-based. The following applies: in vivo, 336 h, time 14 day.
The nature of data set [7]: Toxicity in Crl:CD Sprague-Dawley rat assessed as alkaline phosphatase level in blood at 100 mg/kg, po administered daily for 14 days (reference value: 1340+/-199 U/L). The conditions noted are these: in vivo, 336 h, time 14 day. It counts as organism-based.
The subject of data set [8] is KATO III stomach cancer cell line. In words: Antitumor activity against human KATO III stomach cancer cell line assessed as cell growth inhibition treated for 10 to 15 days. It counts as functional. The following applies: time 10-15 day.
A further data set relates to HCC1937. In words: Antitumor activity against human HCC1937 cells assessed as cell growth inhibition treated for 10 to 15 days. It counts as functional. The following applies: time 10-15 day.
Data set [9] in a line: Antitumor activity against human OVMANA cells assessed as cell growth inhibition treated for 10 to 15 days. The format is functional. The conditions noted are these: time 10-15 day.
Another data set relates to OVCAR-3. In words: Antitumor activity against human OVCAR-3 cells assessed as cell growth inhibition treated for 10 to 15 days. It counts as functional. The following applies: time 10-15 day.
A further data set concerns CAMA-1. Description: Antitumor activity against human CAMA-1 cells assessed as cell growth inhibition treated for 10 to 15 days. The format is functional. The conditions noted are these: time 10-15 day.
For the next data set, the system named is ECC10. In words: Antitumor activity against human ECC10 cells assessed as cell growth inhibition treated for 10 to 15 days. It counts as functional. The conditions noted are these: time 10-15 day.
The test system of another data set is NCI-H661. Description: Antitumor activity against human NCI-H661 cells assessed as cell growth inhibition treated for 10 to 15 days. It counts as functional. The conditions noted are these: time 10-15 day.
The next data set has as its system SNU-398. Description: Antitumor activity against human SNU-398 cells assessed as cell growth inhibition treated for 10 to 15 days. It counts as functional. The following applies: time 10-15 day.
For data set [10], the target named is Serine/threonine-protein kinase Sgk2 (Homo sapiens) (UniProt Q9HBY8). Description: Inhibition of N-terminal GST-fused full length human SGK2 (1 to 367 residues) expressed in baculovirus expression system using SGKtide as substrate at 1 uM in presence of ATP by Mobility shift assay.
For another data set, the system named is RPMI-6666. In words: Antitumor activity against human RPMI-6666 cells assessed as cell growth inhibition treated for 10 to 15 days. It counts as functional. The conditions noted are these: time 10-15 day.
For a further data set, the system named is HH. Description: Antitumor activity against human HH cells assessed as cell growth inhibition treated for 10 to 15 days. The format is functional. The following applies: time 10-15 day.
The target in data set [11] is CDK7/Cyclin H/MNAT1 (Homo sapiens) (UniProt P51946+P50613+P51948). Description: Inhibition of N-terminal GST-tagged full length human CDK7 (1 to 346 residues)/human CyclinH (1 to 323 residues)/human MAT1 (1 to 309 residues) expressed in baculovirus-infected Sf21 cells using CTD3 peptide as substrate at 1 uM in presence of ATP by Mobility shift assay.
For data set [12], the target named is Histone-lysine N-methyltransferase NSD2 (Homo sapiens, UniProt O96028, T1150A). Description: Inhibition of human NSD2 T1150A mutant using Nucleosomes and [3H]SAM as substrate incubated for 30 mins to 1 hr by HotSpot kinase assay.
Another data set has as its system HCC38. Description: Antitumor activity against human HCC38 cells assessed as cell growth inhibition treated for 10 to 15 days. The format is functional. The following applies: time 10-15 day.
Another data set relates to CEM/C2. Description: Antitumor activity against human CEM/C2 cells assessed as cell growth inhibition treated for 10 to 15 days. The following applies: time 10-15 day. It counts as functional.
A short description of data set [13]: Antitumor activity against human OV7 cells assessed as cell growth inhibition treated for 10 to 15 days. The conditions noted are these: time 10-15 day. It counts as functional.
In a further data set the test system is LNCaP-Clone-FGC. Description: Antitumor activity against human LNCaP clone FGC cells assessed as cell growth inhibition treated for 10 to 15 days. The format is functional. The conditions noted are these: time 10-15 day.
Data set [14] has as its target Histone-lysine N-methyltransferase SETD1B (Homo sapiens, UniProt Q9UPS6). Description: Inhibition of human SET1B using Core Histone and [3H]SAM as substrate incubated for 30 mins to 1 hr by HotSpot kinase assay.
A further data set relates to HCC2935. Description: Antitumor activity against human HCC2935 cells assessed as cell growth inhibition treated for 10 to 15 days. The format is functional. The following applies: time 10-15 day.
The next data set relates to Ramos. Description: Antitumor activity against human Ramos cells assessed as cell growth inhibition treated for 10 to 15 days. The format is functional. The following applies: time 10-15 day.
For the next data set, the system named is NCI-H929. In words: Antitumor activity against human NCI-H929 cells assessed as cell growth inhibition treated for 10 to 15 days. The format is functional. The conditions noted are these: time 10-15 day.
In a further data set the test system is TOV21G. In words: Antitumor activity against human TOV-21G cells assessed as cell growth inhibition treated for 10 to 15 days. It counts as functional. The following applies: time 10-15 day.
In the next data set the test system is A2780. In words: Antitumor activity against human A2780 cells assessed as cell growth inhibition treated for 10 to 15 days. The following applies: time 10-15 day. It counts as functional.
Data set [15] addresses Histone-arginine methyltransferase CARM1 (Homo sapiens, UniProt Q86X55). Description: Inhibition of human PRMT4 using Histone H3 and [3H]SAM as substrate incubated for 30 mins to 1 hr by HotSpot kinase assay.
The target of data set [16] is Ephrin type-A receptor 2 (Homo sapiens) (UniProt P29317). Description: Inhibition of N-terminal GST-fused human EPHA2 cytoplasmic domain (572 to 976 residues) expressed in baculovirus-infected Sf21 cells using Blk/Lyntide as substrate at 1 uM in presence of ATP by Mobility shift assay.
The target in data set [17] is DNA (cytosine-5)-methyltransferase 1 (Homo sapiens, UniProt P26358). Description: Inhibition of human DNMT1 using Poly (dl-dC) and [3H]SAM as substrate incubated for 30 mins to 1 hr by HotSpot kinase assay.
The test system of another data set is OCI-LY19. Description: Antitumor activity against human OCILY19 cells assessed as cell growth inhibition treated for 10 to 15 days. The format is functional. The following applies: time 10-15 day.
Another data set relates to MDA-MB-453. Description: Antitumor activity against human MDA-MB-453 cells assessed as cell growth inhibition treated for 10 to 15 days. The following applies: time 10-15 day. It counts as functional.
In data set [18] the target is Eukaryotic translation initiation factor 2-alpha kinase 3 (Homo sapiens) (UniProt Q9NZJ5). In words: Inhibition of N-terminal GST-fused human PEK catalytic domain (536 to 1116 residues) expressed in Escherichia coli expression system using SRPKtide as substrate at 1 uM in presence of ATP by Mobility shift assay.
The subject of a further data set is Jurkat. Description: Antitumor activity against human Jurkat cells clone E6-1 assessed as cell growth inhibition treated for 10 to 15 days. It counts as functional. The conditions noted are these: time 10-15 day.

Chain of Histone-lysine N-methyltransferase SETD1B (Q9UPS6 whole entry): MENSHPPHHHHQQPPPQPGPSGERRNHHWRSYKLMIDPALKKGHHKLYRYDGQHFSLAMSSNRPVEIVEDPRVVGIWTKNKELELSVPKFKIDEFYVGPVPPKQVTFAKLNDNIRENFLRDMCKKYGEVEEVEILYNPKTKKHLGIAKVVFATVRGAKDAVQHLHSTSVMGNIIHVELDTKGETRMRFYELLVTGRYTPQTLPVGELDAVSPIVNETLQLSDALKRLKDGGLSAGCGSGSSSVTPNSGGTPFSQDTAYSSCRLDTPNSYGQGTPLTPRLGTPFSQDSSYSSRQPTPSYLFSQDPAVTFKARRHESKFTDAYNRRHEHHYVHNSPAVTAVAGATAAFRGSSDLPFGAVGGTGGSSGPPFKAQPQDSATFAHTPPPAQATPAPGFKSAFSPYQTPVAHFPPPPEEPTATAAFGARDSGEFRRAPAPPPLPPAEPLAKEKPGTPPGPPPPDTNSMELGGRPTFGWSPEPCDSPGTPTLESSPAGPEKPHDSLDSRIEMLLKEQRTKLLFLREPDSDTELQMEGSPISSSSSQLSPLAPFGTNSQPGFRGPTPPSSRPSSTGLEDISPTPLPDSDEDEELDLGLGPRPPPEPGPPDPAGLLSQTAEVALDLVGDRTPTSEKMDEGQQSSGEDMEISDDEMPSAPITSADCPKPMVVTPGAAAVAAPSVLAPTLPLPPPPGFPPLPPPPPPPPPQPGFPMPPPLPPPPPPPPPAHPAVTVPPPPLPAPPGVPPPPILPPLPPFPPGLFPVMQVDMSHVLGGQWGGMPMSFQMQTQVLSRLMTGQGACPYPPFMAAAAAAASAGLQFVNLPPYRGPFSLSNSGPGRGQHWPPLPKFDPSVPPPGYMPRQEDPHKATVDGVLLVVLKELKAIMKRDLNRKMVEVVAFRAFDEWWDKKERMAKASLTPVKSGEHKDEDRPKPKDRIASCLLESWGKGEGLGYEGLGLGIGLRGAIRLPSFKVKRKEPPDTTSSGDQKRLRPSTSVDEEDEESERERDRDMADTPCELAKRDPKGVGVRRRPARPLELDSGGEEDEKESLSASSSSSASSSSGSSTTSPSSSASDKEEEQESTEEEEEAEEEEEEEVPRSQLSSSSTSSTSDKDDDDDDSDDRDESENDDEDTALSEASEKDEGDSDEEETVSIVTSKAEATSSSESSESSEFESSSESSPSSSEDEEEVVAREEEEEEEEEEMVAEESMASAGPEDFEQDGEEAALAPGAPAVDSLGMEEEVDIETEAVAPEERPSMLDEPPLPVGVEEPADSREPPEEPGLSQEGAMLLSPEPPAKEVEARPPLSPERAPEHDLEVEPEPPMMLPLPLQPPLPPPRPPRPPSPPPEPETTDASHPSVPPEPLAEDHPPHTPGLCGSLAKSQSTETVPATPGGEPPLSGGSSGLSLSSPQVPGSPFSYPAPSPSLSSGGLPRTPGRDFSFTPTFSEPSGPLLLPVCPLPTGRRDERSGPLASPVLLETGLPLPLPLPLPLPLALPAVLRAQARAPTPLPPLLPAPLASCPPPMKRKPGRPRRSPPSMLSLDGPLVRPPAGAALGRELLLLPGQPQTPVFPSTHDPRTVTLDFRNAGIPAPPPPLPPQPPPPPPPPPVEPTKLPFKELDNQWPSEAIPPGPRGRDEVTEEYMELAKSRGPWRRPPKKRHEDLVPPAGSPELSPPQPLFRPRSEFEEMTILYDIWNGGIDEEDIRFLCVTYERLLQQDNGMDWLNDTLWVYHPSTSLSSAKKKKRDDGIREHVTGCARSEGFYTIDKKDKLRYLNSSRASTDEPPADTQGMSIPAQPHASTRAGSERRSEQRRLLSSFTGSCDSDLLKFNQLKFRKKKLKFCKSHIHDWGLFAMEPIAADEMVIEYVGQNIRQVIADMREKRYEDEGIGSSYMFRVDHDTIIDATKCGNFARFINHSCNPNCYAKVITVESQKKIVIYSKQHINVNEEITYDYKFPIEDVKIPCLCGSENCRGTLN
Chain of Histone-lysine N-methyltransferase NSD2 (O96028 whole entry T1150A): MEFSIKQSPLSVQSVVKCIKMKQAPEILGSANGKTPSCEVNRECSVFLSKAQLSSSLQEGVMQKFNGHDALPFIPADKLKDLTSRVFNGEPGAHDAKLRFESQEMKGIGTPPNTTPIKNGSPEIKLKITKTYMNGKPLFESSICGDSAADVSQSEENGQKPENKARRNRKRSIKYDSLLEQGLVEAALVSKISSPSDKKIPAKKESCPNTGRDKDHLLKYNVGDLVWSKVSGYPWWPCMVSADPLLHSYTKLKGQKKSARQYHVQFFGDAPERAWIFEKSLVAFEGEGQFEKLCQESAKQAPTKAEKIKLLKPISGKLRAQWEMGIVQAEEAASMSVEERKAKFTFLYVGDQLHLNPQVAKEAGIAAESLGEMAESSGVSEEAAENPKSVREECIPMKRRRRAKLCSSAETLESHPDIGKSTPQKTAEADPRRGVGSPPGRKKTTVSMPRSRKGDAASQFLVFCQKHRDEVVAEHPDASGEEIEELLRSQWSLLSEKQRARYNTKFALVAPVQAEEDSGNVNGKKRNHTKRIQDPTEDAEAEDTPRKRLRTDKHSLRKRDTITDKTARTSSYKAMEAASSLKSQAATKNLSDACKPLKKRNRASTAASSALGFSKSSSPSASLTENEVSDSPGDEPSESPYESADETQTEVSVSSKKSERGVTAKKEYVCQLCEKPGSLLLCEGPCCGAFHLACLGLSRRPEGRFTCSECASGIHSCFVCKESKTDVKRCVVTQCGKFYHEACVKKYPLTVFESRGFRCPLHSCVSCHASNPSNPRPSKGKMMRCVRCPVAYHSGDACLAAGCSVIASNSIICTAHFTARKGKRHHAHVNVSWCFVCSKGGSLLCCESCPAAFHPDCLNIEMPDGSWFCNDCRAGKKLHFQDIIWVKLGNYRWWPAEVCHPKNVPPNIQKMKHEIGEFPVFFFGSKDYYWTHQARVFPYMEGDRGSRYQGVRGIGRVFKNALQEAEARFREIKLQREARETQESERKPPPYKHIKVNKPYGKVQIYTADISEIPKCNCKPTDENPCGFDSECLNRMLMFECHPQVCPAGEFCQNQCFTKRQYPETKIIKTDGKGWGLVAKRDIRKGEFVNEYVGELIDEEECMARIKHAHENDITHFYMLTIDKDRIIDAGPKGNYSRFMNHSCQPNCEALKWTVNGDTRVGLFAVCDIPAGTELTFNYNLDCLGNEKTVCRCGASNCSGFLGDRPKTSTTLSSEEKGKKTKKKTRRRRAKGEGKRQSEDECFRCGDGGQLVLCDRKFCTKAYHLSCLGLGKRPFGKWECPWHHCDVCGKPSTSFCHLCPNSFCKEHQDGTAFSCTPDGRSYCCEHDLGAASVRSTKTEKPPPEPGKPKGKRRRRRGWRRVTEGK
Chain of Histone-arginine methyltransferase CARM1 (Q86X55 whole entry, the tested form may be a part): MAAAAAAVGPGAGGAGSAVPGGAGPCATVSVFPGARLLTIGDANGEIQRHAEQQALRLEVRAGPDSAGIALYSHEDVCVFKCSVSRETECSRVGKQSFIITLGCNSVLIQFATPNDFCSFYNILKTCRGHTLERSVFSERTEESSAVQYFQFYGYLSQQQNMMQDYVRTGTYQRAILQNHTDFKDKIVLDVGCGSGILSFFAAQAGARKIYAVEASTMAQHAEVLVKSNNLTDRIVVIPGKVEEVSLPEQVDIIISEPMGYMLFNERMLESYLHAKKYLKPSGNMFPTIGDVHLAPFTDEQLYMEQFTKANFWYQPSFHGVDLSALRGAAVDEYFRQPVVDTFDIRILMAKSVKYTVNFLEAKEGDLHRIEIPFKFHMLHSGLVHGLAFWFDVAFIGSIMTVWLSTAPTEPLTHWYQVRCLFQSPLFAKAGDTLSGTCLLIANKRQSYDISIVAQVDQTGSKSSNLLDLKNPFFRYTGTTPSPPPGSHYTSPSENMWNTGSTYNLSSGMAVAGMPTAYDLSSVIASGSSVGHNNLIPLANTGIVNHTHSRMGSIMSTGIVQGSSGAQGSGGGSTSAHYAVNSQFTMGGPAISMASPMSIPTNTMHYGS
Chain of Interleukin-1 receptor-associated kinase 1 (Homo sapiens) (P51617 whole entry, looked up, the tested form may be a part): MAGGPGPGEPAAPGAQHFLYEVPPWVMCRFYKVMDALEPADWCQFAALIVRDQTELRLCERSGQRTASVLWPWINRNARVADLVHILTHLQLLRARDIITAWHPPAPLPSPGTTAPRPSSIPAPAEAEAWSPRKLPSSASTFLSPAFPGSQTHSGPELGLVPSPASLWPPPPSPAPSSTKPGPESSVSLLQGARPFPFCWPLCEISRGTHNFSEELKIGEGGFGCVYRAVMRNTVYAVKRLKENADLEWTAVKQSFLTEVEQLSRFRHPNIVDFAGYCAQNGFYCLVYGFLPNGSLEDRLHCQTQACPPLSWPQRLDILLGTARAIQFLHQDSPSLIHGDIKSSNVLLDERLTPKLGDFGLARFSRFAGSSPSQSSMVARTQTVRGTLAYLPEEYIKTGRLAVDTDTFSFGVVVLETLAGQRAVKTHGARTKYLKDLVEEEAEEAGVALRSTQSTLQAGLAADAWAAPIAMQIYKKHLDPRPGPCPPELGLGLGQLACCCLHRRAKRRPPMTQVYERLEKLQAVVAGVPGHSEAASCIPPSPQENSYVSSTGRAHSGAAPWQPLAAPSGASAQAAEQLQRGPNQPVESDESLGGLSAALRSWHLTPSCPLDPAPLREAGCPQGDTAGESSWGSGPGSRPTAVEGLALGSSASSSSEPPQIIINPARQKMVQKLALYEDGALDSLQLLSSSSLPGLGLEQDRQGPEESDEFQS
Chain of Serine/threonine-protein kinase Sgk2 (Homo sapiens) (Q9HBY8 whole entry, the tested form may be a part): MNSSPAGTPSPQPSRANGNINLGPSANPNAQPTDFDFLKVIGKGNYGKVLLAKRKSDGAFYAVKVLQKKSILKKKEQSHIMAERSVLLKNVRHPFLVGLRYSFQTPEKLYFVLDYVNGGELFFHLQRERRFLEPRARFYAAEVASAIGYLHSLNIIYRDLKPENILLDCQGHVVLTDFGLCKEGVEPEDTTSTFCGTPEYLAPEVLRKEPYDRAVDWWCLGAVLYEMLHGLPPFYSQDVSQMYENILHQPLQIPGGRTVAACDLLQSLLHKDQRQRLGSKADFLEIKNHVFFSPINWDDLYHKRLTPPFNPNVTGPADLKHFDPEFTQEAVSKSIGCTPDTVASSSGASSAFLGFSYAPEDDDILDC

On to `Cc1cc(C)c(CNC(=O)c2cc(Br)c3c(c2C)O[C@@](C)([C@H]2CC[C@H](N(C)C)CC2)O3)c(=O)[nH]1`, for which the Activity in data set [1] was 0.168 10^3 /uL; in data set [3] it was “Non-Toxic”; in [4] it was 0.238 mg/dL; in data set [5] it was 186 U/L; in [6], 27.5 U/L; in data set [7] it was 1120 U/L. Besides, in data set [2], the inhibition (as a rule, the drop in the measured response relative to a control, in per cent) is -4.5%.
Turning to `Cc1cc(C)c(CNC(=O)c2cc(Cl)c3c(c2C)O[C@@](C)([C@H]2CC[C@H](N(C)C)CC2)O3)c(=O)[nH]1` [VALEMETOSTAT], the 50% growth inhibitory concentration (GI50) – broadly, the concentration at which growth is held to half of that of the control – in [8] is 0.0182 µM; in the data set on HCC1937, over 1 µM; in data set [9], over 1 µM; in the data set with OVCAR-3, over 1 µM; with CAMA-1 it was 0.00656 µM; in the data set on ECC10 it was 0.0845 µM. Also, the concentration for 50% growth inhibition (GI50) in the data set on NCI-H661 was 0.359 µM; with SNU-398 it was 0.00207 µM; in the data set on RPMI-6666, 0.0684 µM; in the data set on HH, 0.00718 µM; in the data set with HCC38, over 1 µM; in the data set on CEM/C2, over 1 µM. Also, the GI50 was over 1 µM in [13]; 0.00553 µM with LNCaP-Clone-FGC; over 1 µM in the data set on HCC2935; over 1 µM in the data set with Ramos; over 1 µM with NCI-H929; 0.0555 µM in the data set with TOV21G. Further, the GI50 in the data set with A2780 is 0.036 µM; in the data set on OCI-LY19 it was over 1 µM; with MDA-MB-453 it was 0.124 µM; in the data set on Jurkat, over 1 µM. Also, the inhibition was -9% in [10], -6.7% in data set [11], -6.7% in [16] and -9.8% in data set [18]. The concentration for half-maximal inhibition (IC50) in [12], in data set [14], in data set [15] and in data set [17] was 100 µM throughout.
